18 compounds from patent US20260234165A1, “MACROCYCLIC COMPOUNDS, PREPARATION METHOD THEREFOR, AND USE THEREOF” (GENFLEET THERAPEUTICS (SHANGHAI) INC., priority 2004, published 2026) can be followed below.

Structures are written as SMILES. Where two headings read alike, the source gives them in different places.

In assay [1] the test system is p-ERK in NCI-H441 cells (KRAS G12V mutation). Put plainly: Cell p-ERK assay (HTRF) in NCI-H441 cells. To be noted: NCI-H441 cells, 3 h compound incubation, HTRF p-ERK T202/Y204, read-out: H441 p-ERK IC50. In kind it is cell-based, human. The gist of the method:
(§1)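 AsPC-1 (10000/well) or NCI-H441 (20000/well) cells were seeded in RPMI-1640 with 10% FBS, grown overnight, then exposed to 3.16-fold compound dilutions (0.1% DMSO) for 3 h at 37 °C. Lysates were read for phospho-ERK T202/Y204 by HTRF; IC50 came from four-parameter fits of inhibition versus DMSO and blank wells.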

The subject of assay [2] is p-ERK in AsPC-1 cells (KRAS G12D mutation). Put plainly: Cell p-ERK assay (HTRF) in AsPC-1 cells. In kind it is cell-based, human. To be noted: AsPC-1 cells, 3 h compound incubation, HTRF p-ERK T202/Y204, read-out: AsPC-1 p-ERK IC50. The gist of the method: as §1

As for `CCn1c(-c2cc(C#CCN3CCCOCC3)cnc2C(C)C)c2c3cc(ccc31)-c1csc(n1)C[C@H](NC(=O)[C@H]1[C@H](C)[C@@H]1C)C(=O)N1CCC[C@H](N1)C(=O)OCC(C)(C)C2` (atropisomer, axis not shown; (Sa)) [Compound Z811-2, (1r,2R,3S)—N-((6^3S,4S,Z)—(Sa)-1-(5-(3-(1,4-oxazepan-4-yl)prop-1-yn-1-yl)-2-isopropylpyridin-3-yl)-1^1-ethyl-10,10-dimethyl-5,7-dioxo-6^1,6^2,6^3,6^4,6^5,6^6-hexahydro-1^1H-8-oxa-2(4,2)-thiazola-1(5,3)-indola-6(1,3)-pyridazinacycloundecaphane-4-yl)-2,3-dimethylcyclopropane-1-carboxamide], the half-inhibitory concentration (IC50) in assay [1] was found to be 0.21 nM; in assay [2], 0.58 nM.
Turning to `CCn1c(-c2cc(C#CCN(C)CCOC)cnc2[C@H](C)OC)c2c3cc(ccc31)-c1csc(n1)C[C@H](NC(=O)[C@H]1[C@H](C)[C@@H]1C)C(=O)N1CCC[C@H](N1)C(=O)OCC(C)(C)C2` (atropisomer, axis not shown; (Ra)) [Compound Z788], the IC50 amounted to 0.19 nM in assay [1] and 0.38 nM in assay [2].
As to `CCn1c(-c2cc(C#CCN3CCCOCC3)cnc2[C@H](C)OC)c2c3cc(ccc31)-c1csc(n1)C[C@H](NC(=O)CC1CC1)C(=O)N1CCC[C@H](N1)C(=O)OCC(C)(C)C2` (atropisomer, axis not shown; (Ra)) [Compound Z915], the IC50 in assay [1] (Homo sapiens, NCI-H441, 3 h) is 0.68 nM; in assay [2] (Homo sapiens, ASPC1, 3 h) it was 1.26 nM.
For `CCO[C@@H](C)c1ncc(N2CCN(CCS(C)(=O)=O)CC2)cc1-c1c2c3cc(ccc3n1CC)-c1csc(n1)C[C@H](NC(=O)[C@H]1[C@H](C)[C@@H]1C)C(=O)N1CCC[C@H](N1)C(=O)OCC1(CC1)C2` (single isomer, unassigned) [Compound Z378-1], in that order: 4.64 nM and 10.6 nM.
Consider `CCn1c(-c2cc(C#CCN3CCCN(C)CC3)cnc2[C@H](C)OC)c2c3cc(ccc31)-c1csc(n1)C[C@H](NC(=O)[C@H]1[C@H](C)[C@@H]1C)C(=O)N1CCC[C@H](N1)C(=O)OCC(C)(C)C2` (atropisomer, axis not shown; (Ra)) [Compound Z802, (1r,2R,3S)—N-((6^3S,4S,Z)-1^2-(5-(3-(4-methyl-1,4-diaza-1-yl)prop-1-yn-1-yl)-(Ra)-2-((S)-1-methoxyethyl)pyridin-3-yl)-1^1-ethyl-10,10-dimethyl-5,7-dioxo-6^1,6^2,6^3,6^4,6^5,6^6-hexahydro-1^1H-8-oxa-2(4,2)-thiazola-1(5,3)-indola-6(1,3)-pyridazinacycloundecaphane-4-yl)-2,3-dimethylcyclopropane-1-carboxamide], for which the IC50 is 0.4 nM in assay [1] (Homo sapiens, NCI-H441, 3 h) and 0.2 nM in assay [2] (Homo sapiens, ASPC1, 3 h).
For `CCn1c(-c2cc(C#CCN3CCS(=O)(=O)CC3)cnc2[C@H](C)OC)c2c3cc(ccc31)-c1csc(n1)C[C@H](NC(=O)[C@H]1[C@H](C)[C@@H]1C)C(=O)N1CCC[C@H](N1)C(=O)OCC(C)(C)C2` (atropisomer, axis not shown; (Ra)) [Compound Z838, (1r,2R,3S)—N-((6^3S,4S,Z)—(Ra)-1^2-(5-(3-(1,1-dioxidothiomorpholino)prop-1-yn-1-yl)-2-((S)-1-methoxyethyl)pyridin-3-yl)-1^1-ethyl-10,10-dimethyl-5,7-dioxo-6^1,6^2,6^3,6^4,6^5,6^6-hexahydro-1^1H-8-oxa-2(4,2)-thiazola-1(5,3)-indola-6(1,3)-pyridazinacycloundecaphane-4-yl)-2,3-dimethylcyclopropane-1-carboxamide] the same measures were 0.15 nM and 0.08 nM.
In the case of `CCn1c(-c2cc(C#CCN3CCN(C)C(=O)C3)cnc2[C@H](C)OC)c2c3cc(ccc31)-c1csc(n1)C[C@H](NC(=O)[C@H]1[C@H](C)[C@@H]1C)C(=O)N1CCC[C@H](N1)C(=O)OCC(C)(C)C2` (atropisomer, axis not shown; (Ra)) [Compound Z793], the IC50 in assay [1] (Homo sapiens, NCI-H441, 3 h) came to 0.09 nM; in assay [2] (Homo sapiens, ASPC1, 3 h) it was 0.19 nM.
For `CCn1c(-c2cc(C#CCN3CCCOCC3)cnc2[C@H](C)OC)c2c3cc(ccc31)-c1csc(n1)C[C@H](NC(=O)[C@H]1C[C@@H]1C)C(=O)N1CCC[C@H](N1)C(=O)OCC(C)(C)C2` (single isomer, unassigned) [Compound Z604] the same measures were 0.26 nM and 0.51 nM.
With `CCn1c(-c2cc(C#CCN3C4CCC3COC4)cnc2[C@H](C)OC)c2c3cc(ccc31)-c1csc(n1)C[C@H](NC(=O)[C@H]1[C@H](C)[C@@H]1C)C(=O)N1CCC[C@H](N1)C(=O)OCC(C)(C)C2` (atropisomer, axis not shown; (Ra)) [Compound Z711, (1r,2R,3S)—N-((6^3S,4S,Z)—(Ra)-1^2-(5-(3-(3-oxa-8-azabicyclo[3.2.1]octan-8-yl)prop-1-yn-1-yl)-2-((S)-1-methoxyethyl)pyridin-3-yl)-1^1-ethyl-10,10-dimethyl-5,7-dioxo-6^1,6^2,6^3,6^4,6^5,6^6-hexahydro-1^1H-8-oxa-2(4,2)-thiazola-1(5,3)-indola-6(1,3)-pyridazinacycloundecaphane-4-yl)-2,3-dimethylcyclopropane-1-carboxamide], the IC50 in assay [1] was 0.23 nM; in assay [2], 0.32 nM.
Take `CCn1c(-c2cc(N3CCN4CC5(CC5)OC[C@@H]4C3)cnc2[C@H](C)OC)c2c3cc(ccc31)-c1csc(n1)C[C@H](NC(=O)[C@H]1[C@H](C)[C@@H]1C)C(=O)N1CCC[C@H](N1)C(=O)OCC1(CC1)C2` (atropisomer, axis not shown; (Ra)) [Compound Z13]: the IC50 amounted to 0.88 nM in assay [1] (Homo sapiens, NCI-H441, 3 h) and 2.24 nM in assay [2] (Homo sapiens, ASPC1, 3 h).
For `CCn1c(-c2cc(C#C[C@@H]3COCCN3C)cnc2[C@H](C)OC)c2c3cc(ccc31)-c1csc(n1)C[C@H](NC(=O)[C@H]1[C@H](C)[C@@H]1C)C(=O)N1CCC[C@H](N1)C(=O)OCC(C)(C)C2` (atropisomer, axis not shown; (Ra)) [Compound Z672, (1r,2R,3S)—N-((6^3S,4S,Z)-1^1-ethyl-(Ra)-1^2-(2-((S)-1-methoxyethyl)-5-(((R)-4-methylmorpholin-3-yl)ethynyl)pyridin-3-yl)-10,10-dimethyl-5,7-dioxo-6^1,6^2,6^3,6^4,6^5,6^6hexahydro-1^1H-8-oxa-2(4,2)-thiazola-1(5,3)-indola-6(1,3)-pyridazinacycloundecaphane-4-yl)-2,3-dimethylcyclopropane-1-carboxamide], in that order: 0.39 nM and 0.39 nM.
On to `CO[C@@H](C)c1ncc(C#CCN2CCCOCC2)cc1-c1c2c3cc(ccc3n1CC(F)(F)F)-c1csc(n1)C[C@H](NC(=O)[C@H]1[C@H](C)[C@@H]1C)C(=O)N1CCC[C@H](N1)C(=O)OCC(C)(C)C2` (atropisomer, axis not shown; (Ra)) [Compound Z700, N-((6^3S,4S,Z)-1^1-(2,2,2-trifluoroethyl)-(Ra)-1^2-(2-((S)-1-methoxyethyl)-(5-(3-(1,4-oxazepan-4-yl)prop-1-yn-1-yl))-pyridin-3-yl)-10,10-dimethyl-5,7-dioxo-6^1,6^2,6^3,6^4,6^5,6^6-hexahydro-1^1H-8-oxa-2(4,2)-thiazola-1(5,3)-indola-6(1,3)-pyridazinacycloundecaphane-4-yl)-2,3-dimethylcyclopropane-1-carboxamide], for which the IC50 in assay [1] came to 0.2 nM; in assay [2], 0.16 nM.
With `CCn1c(-c2cc(C#CCN3CCC3)cnc2[C@H](C)OC)c2c3cc(ccc31)-c1csc(n1)C[C@H](NC(=O)[C@H]1[C@H](C)[C@@H]1C)C(=O)N1CCC[C@H](N1)C(=O)OCC(C)(C)C2` (single isomer, unassigned) [Compound Z554], the IC50 in assay [1] (Homo sapiens, NCI-H441, 3 h) came to 0.42 nM; in assay [2] (Homo sapiens, ASPC1, 3 h), 0.67 nM.
As for `CCn1c(-c2cc(C#CCN3CCOC[C@H]3C)cnc2[C@H](C)OC)c2c3cc(ccc31)-c1csc(n1)C[C@H](NC(=O)[C@H]1[C@H](C)[C@@H]1C)C(=O)N1CCCC(N1)C(=O)OCC(C)(C)C2` (atropisomer, axis not shown; (Ra)) [Compound Z813], the IC50 in assay [1] and in assay [2] was 0.08 nM each time.
Consider `CCn1c(-c2cc(N3CCN(CCS(C)(=O)=O)CC3)cnc2[C@H](C)OC)c2c3cc(ccc31)-c1csc(n1)C[C@H](NC(=O)[C@H]1[C@H](C)[C@@H]1C)C(=O)N1CCC[C@H](N1)C(=O)OCC1(CC1)C2` (single isomer, unassigned) [Compound Z367], for which the IC50 in assay [1] (Homo sapiens, NCI-H441, 3 h) worked out at 2.1 nM; in assay [2] (Homo sapiens, ASPC1, 3 h), 7.29 nM.
For `CCn1c(-c2cc(C#CCN3CCC(C(F)(F)F)CC3)cnc2[C@H](C)OC)c2c3cc(ccc31)-c1csc(n1)C[C@H](NC(=O)[C@H]1[C@H](C)[C@@H]1C)C(=O)N1CCC[C@H](N1)C(=O)OCC(C)(C)C2` (atropisomer, axis not shown; (Ra)) [Compound Z778] the same measures were 0.37 nM and 1.53 nM.
For `CCn1c(-c2cc(C#CCN3CCCOCC3)cnc2[C@H](C)OC)c2c3cc(ccc31)-c1csc(n1)C[C@H](NC(=O)[C@H]1[C@H](C)[C@@H]1C)C(=O)N1CCC[C@H](N1)C(=O)OCC(C)(C)C2` (single isomer, unassigned) [Compound Z504], in that order: 0.55 nM and 0.16 nM.
For `CCn1c(-c2cc(C#CCN3CCCOCC3)cnc2[C@H](C)OC)c2c3cc(ccc31)-c1csc(n1)C[C@H](NC(=O)CC(C)C)C(=O)N1CCC[C@H](N1)C(=O)OCC(C)(C)C2` (single isomer, unassigned) [Compound Z803] the same measures were 1.14 nM and 0.85 nM.
